The target in experiment [1] is T1, human AR (androgen receptor) (Homo sapiens, UniProt P10275).
T1 construct: expressed in transfected cells; host or cells: 293 cells (293-AR lysate)
T1 sequence (P10275 1-920): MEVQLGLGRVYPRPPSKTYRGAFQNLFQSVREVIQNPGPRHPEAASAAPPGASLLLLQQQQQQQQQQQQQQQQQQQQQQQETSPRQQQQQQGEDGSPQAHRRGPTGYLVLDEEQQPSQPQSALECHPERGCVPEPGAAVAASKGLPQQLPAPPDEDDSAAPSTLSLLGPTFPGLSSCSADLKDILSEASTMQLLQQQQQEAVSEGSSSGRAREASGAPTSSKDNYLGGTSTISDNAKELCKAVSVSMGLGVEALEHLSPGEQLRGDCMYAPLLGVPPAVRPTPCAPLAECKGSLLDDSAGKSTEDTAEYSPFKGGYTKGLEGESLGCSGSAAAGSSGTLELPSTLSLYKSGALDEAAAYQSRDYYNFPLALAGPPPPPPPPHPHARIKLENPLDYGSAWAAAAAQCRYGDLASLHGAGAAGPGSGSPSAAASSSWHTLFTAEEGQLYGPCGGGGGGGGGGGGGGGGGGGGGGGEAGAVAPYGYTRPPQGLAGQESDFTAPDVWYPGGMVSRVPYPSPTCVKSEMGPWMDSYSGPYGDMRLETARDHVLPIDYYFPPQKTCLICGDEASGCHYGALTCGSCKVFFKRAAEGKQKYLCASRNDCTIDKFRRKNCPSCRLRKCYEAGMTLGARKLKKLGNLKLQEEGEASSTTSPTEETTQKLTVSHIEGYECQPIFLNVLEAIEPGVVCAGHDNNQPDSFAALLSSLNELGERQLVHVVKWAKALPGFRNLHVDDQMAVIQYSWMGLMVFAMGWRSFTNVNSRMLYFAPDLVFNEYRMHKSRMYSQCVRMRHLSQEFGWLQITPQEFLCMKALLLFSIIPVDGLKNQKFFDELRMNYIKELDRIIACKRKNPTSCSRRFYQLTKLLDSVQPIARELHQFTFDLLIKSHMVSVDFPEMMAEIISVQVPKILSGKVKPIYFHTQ
In words: Steroid hormone nuclear receptor binding assay (AR binding). The settings on record: AR binding Ki (nM), 293-AR cell lysate, 3H-methyltrienolone competition. On the procedure: Cell lysates from 293 cells overexpressing human GR (glucocorticoid receptor), AR (androgen receptor), MR (mineralocorticoid receptor) or PR (progesterone receptor) are used for competition binding assays to determine Ki values for test compounds. Briefly, competition binding assays are run in a buffer containing 20 mM Hepes, pH 7.6, 0.2 mM EDTA, 75 mM NaCl, 1.5 mM MgCl2, 20% glycerol, 20 mM sodium molybdate, 0.2 mM DTT, 20 ug/ml aprotinin and 20 ug/ml leupeptin, using either 0.3 nM ^3H-dexamethasone for GR binding, 0.36 nM ^3H-methyltrienolone for AR binding, 0.25 nM ^3H-aldosterone for MR binding, or 0.29 nM ^3H-methyltrienolone for PR binding, and either 20 ug 293-GR lysate, 22 ug 293-AR lysate, 20 ug 293-MR lysate or 40 ug 293-PR lysate per well. Competing compounds are added at various concentrations ranging from about 0.01 nM to 10 μM. Non-specific binding is determined in the presence of 500 nM dexamethasone for GR binding, 500 nM aldosterone for MR binding, or 500 nM methyltrienolone for AR and PR binding. The binding reaction (140 μl) is incubated for overnight at 4° C., then 70 μl of cold charcoal-dextran buffer (containing per 50 ml of assay buffer, 0.75 g of charcoal and 0.25 g of dextran) is added to each reaction. Plates are mixed 8 minutes on an orbital shaker at 4° C. Plates are then centrifuged at 3,000 rpm at 4° C. for 10 minutes. An aliquot of 120 μl of the mix is transferred to another 96-well plate and 175 μl of Wallac Optiphase “Hisafe 3” scintillation fluid is added to each well. Plates are sealed and shaken vigorously on an orbital shaker. After an incubation of 2 hrs, plates are read in a Wallac Microbeta counter. The data is used to calculate an IC50 and % Inhibition at 10 μM. The Kd for ^3H-dexamethasone for GR binding, ^3H-methyltrienolone for AR binding, ^3H-aldosterone for MR binding, or ^3H-methyltrienolone for PR binding, is determined by saturation binding. The IC50 values for test compounds are converted to Ki using Cheng-Prusoff equation and the Kd determined by saturation binding assay.
Binding assay protocols for steroid hormone nuclear receptors similar to those described above can be readily designed by the ordinarily skilled artisan.

For experiment [2], the target named is T2, human androgen receptor (AR) (Homo sapiens, UniProt P10275).
T2 construct: expressed in transfected cells; host or cells: mouse myoblast C2C12 cells, transiently co-transfected with FuGENE
T2 sequence (P10275 1-920): T1 sequence (P10275 1-920)
Put plainly: C2C12 AR/ARE reporter assay. The settings on record: average; for Emax: C2C12, read-out: C2C12 % Efficacy, versus maximum stimulation obtained with 10 nM methyltrienolone; for EC50: C2C12 EC50(nM), mouse myoblast C2C12 cells, luciferase reporter, 48 h. It counts as cell-based. On the procedure: As an indicator of agonist activity in muscle tissue, the C2C12 AR/ARE reporter assay is performed. Briefly, mouse myoblast C2C12 cells are co-transfected using FuGENE™. […] Cells are transfected in T150 cm^2 flasks in DMEM media with 4% or 10% Fetal Bovine Serum (FBS). After a 5 hour incubation, transfected cells are trypsinized, plated in 96 well dishes in DMEM media containing 10% charcoal-stripped FBS, incubated for 2 h and then exposed to various concentrations of test compounds ranging from about 0.01 nM to 10 μM. After 48 h of incubations with compounds, cells are lysed and luciferase activity is determined using standard techniques. Data is fit to a 4 parameter-fit logistics to determine EC50 values. The % efficacy is determined versus maximum stimulation obtained with 10 nM methyltrienolone. […]
In general terms: Reporter assays use an easily measured gene product as a stand-in for the process of interest.

The next experiment has as its system castrated male ICR mice. Put plainly: In vivo mouse model of efficacy and selectivity (castrated mice, tissue wet weights). The settings on record: for % Efficacy: (ANOVA, p < 0.05): Levator Ani muscle wet weight vs castrated vehicle-only control x100, 10 mg/kg/d, two weeks; for Seminal vesicle and/or prostate weight gain: tissue selectivity indicator, castrated mice. On the procedure:
Male ICR mice (8 weeks old) are castrated according to approved procedures (Taconic, N.Y.) and allowed to waste for eight weeks. Age-matched sham-operated mice are also prepared. (Sham-operated mice are animals that have been exposed to the same surgical procedures as castrated animals except their testes are not removed.) Animals are housed in a temperature-controlled room (24° C.) with a reversed 12 hour light/dark cycle (dark 10:00/22:00) and water and food are available ad libitum.
Test compounds are administered to the animals using conventional vehicles. For example, for oral dosing 1% Sodium Carboxymethylcellulose (CMC)+0.25% Tween 80 in sterile H2O can be used for oral formulation and 6% Ethyl-alcohol (EtOH)+94% cyclodexitrane (CDX) can be used for subcutaneous injections. Castrated mice treated with Testosteron Enanthate (TE) (10 mg/kg/d) are used as a treatment positive control whereas castrated mice treated only with vehicle are used as treatment negative control. In addition, sham-operated mice treated with vehicle only are used as control for the surgical method.
Test animals are dosed over a two week timeframe, orally or subcutaneously, with, for example, 0.3, 1, 3, 10 or 30 mg/kg/day of a compound of the present invention. After the two-week treatment, as an indicator of activity the wet weight of the Levator Ani muscle in the test group is determined and compared to the weight in the castrated, vehicle-only control group. The percent efficacy is then calculated as follows: (Wet weight in treatment group/Wet weight in control group)×100 As an indicator of tissue selective activity, the wet weight of the seminal vesicle from test animals is similarly compared to the weight of the seminal vesicles from the castrated, vehicle-only group. In addition, a comparison of the wet weight of the prostate glands from the drug-treated group, to the wet weight of the prostate glands removed from the castrated, vehicle-only group, may also be used as an indicator of tissue selective activity.
Table II (see below) provides % efficacy data for a select sample of exemplified compounds of the present invention in an animal model essentially as described above. Animal models of efficacy and selectivity similar to those described above can be readily designed and performed by the ordinarily skilled artisan, for example, Eisenberg and Gilbert, J Pharmacol Exp Ther. 1950, 99(1), 38-44, provides an alternative rat model that may be employed to show in vivo efficacy.)

Broadly, the Ki is the dissociation constant of the complex between target and ligand, obtained from inhibition or displacement. What is called EC50 is the concentration needed to bring the measured effect to its halfway point. Low values mean a more potent agent, high ones a less potent agent. Turning to `Cc1c(N2CCCC2c2cccnc2)ccc(C#N)c1Cl` (stereo not shown) [Example 9], in experiment [1], the Ki is 1.3 nM. Further, in experiment [2], the Emax was determined as 90.7% and a half-maximal effect (EC50) was put at 2.6 nM. The “% Efficacy: (ANOVA, p < 0.05)” value with castrated male ICR mice (sc) turned out to be 186%. Moreover, in the experiment with castrated male ICR mice, the “Seminal vesicle and/or prostate weight gain” value is “no weight gain”.
The compound `Cc1c(N2CCCC2c2ccc3c(c2)OCO3)ccc(C#N)c1Cl` (stereo not shown) [Example 12] yielded an inhibition constant Ki in experiment [1] of 2.2 nM. In addition, in experiment [2], the Emax is 95.6% and the EC50 was 12.4 nM. Further, the “% Efficacy: (ANOVA, p < 0.05)” value in the experiment with castrated male ICR mice (po) was 164%. Also, in the experiment on castrated male ICR mice, the “Seminal vesicle and/or prostate weight gain” value is listed as “no weight gain”.
`Cc1c(N2CCCC2c2nnco2)ccc(C#N)c1Cl` (stereo not shown) [Example 26, 2-chloro-3-methyl-4-[2-(1,3,4-oxadiazol-2-yl)-1-pyrrolidinyl]benzonitrile] displayed a Ki in experiment [1] of 5.4 nM. Moreover, in experiment [2], the Emax stood at 82.7% and the response was half-maximal at 4.2 nM (EC50).
On the same counts, the results for `Cc1noc(C2CCCN2c2ccc(C#N)c(Cl)c2C)n1` (stereo not shown) [Example 27, 2-chloro-3-methyl-4-[2-(3-methyl-1,2,4-oxadiazol-5-yl)pyrrolidin-1-yl]benzonitrile] are 1.9 nM, 87.6% and 0.5 nM.
For the compound `Cc1nnc(C2CCCN2c2ccc(C#N)c(Cl)c2C)s1` (stereo not shown) [Example 28, 2-chloro-3-methyl-4-[2-(5-methyl-1,3,4-thiadiazol-2-yl)pyrrolidin-1-yl]benzonitrile], in experiment [1], the Ki was 9 nM. Besides, in experiment [2], the Emax was found to be 74.3% and the EC50 worked out at 24.4 nM.
In experiment [1], `Cc1nnc(C2CCCN2c2ccc(C#N)c(Cl)c2C)[nH]1` (stereo not shown) [Example 29, 2-chloro-3-methyl-4-[2-(5-methyl-4H-1,2,4-triazol-3-yl)pyrrolidin-1-yl]benzonitrile] returned a Ki of 58.9 nM. Moreover, in experiment [2], the Emax worked out at 83.9% and a half-maximal response (EC50) required 378 nM.
Compound `Cc1c(N2CCCC2c2nnc(N)o2)ccc(C#N)c1Cl` (stereo not shown) [Example 30, 4-[2-(5-amino-1,3,4-oxadiazol-2-yl)pyrrolidin-1-yl]-2-chloro-3-methylbenzonitrile] came in with an inhibition constant Ki in experiment [1] of 18.7 nM. Besides, in experiment [2], the Emax was found to be 95.7% and the EC50 was found to be 37.9 nM.
On the same counts, the results for `Cc1c(N2CC(O)CC2c2ccccc2)ccc(C#N)c1Cl` (stereo not shown) [Example 31, 2-Chloro-3-methyl-4-(4-hydroxy-2-phenyl-pyrrolidin-1-yl)-benzonitrile] are 8.3 nM, 91.6% and 20.7 nM.

(Values after patent US7807691B2, “Substituted N-arylpyrrolidines as selective androgen receptor modulators” (Eli Lilly and Company, priority 2005, dated 2010).)
